Experimental findings from ChEMBL document CHEMBL4038348 (J Med Chem, 2017) are described below.

This data set can be described thus: physchem. Conditions: octanol/water, pH 7.4.

Description: 1-octanol/aqueous buffer solution partition coefficient, log D of the compound at pH 7.4 by UV-HPLC method

Regarding `CCC(NC(=O)N1CC(=O)Nc2cccnc21)c1ccc(N2CCC2)cc1` (configuration not stated), the logD was found to be 3.13.

Turning to `COCC(NC(=O)N1CC(=O)Nc2cc(OC)cnc21)c1ccc(C(F)(F)F)cc1` (stereo in doubt; 34), the logD is 3.03.
